Experimental data from patent US11549123B2, “Plant EPSP synthases and methods of use” (PIONEER HI-BRED INTERNATIONAL, INC., priority 2015, dated 2023).
Numbering of substitutions follows the chain as printed. Where “and” joins values, the source holds several entries; their conditions need not be identical. Equal values may be shown once.

Tests used:
[1] = molecular target: T1, Zea mays (maize) EPSPS, native, SEQ ID NO:1 (Table 10: SEQ ID NO:2) (Zea mays, UniProt O24566); assay: EPSPS substrate saturation kinetics (PEP varied, glyphosate inhibition), native maize; format: biochemical
T1 sequence (O24566 with tags, fused parts or gaps): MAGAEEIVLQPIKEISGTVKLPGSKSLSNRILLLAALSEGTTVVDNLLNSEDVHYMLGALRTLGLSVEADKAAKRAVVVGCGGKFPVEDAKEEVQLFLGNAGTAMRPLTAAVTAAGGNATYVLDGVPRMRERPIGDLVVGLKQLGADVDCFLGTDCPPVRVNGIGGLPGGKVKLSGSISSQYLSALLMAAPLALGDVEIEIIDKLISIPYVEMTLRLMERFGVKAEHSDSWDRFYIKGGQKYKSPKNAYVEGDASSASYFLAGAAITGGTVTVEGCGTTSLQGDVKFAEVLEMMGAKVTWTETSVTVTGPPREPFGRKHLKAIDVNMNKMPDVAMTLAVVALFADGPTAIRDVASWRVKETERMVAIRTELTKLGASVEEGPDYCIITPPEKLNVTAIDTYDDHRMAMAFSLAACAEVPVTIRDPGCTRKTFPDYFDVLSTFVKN
Description: The amino acid sequence of mature Zea mays EPSP synthase (EPSPS) was obtained from GenBank entry CAA44974.1 (NCBI GI No. 1524383; presented herein as SEQ ID NO:2). A nucleotide sequence was created to add an N-terminal methionine and to optimize codon usage for expression in E. coli. The synthetic gene was supplied by a commercial vendor. The gene was cloned into an expression vector that provides a T7 promoter driving expression of the protein. The vector was modified to change a 6×N-terminal histidine tag to a 10×tag. The resulting coding region of the vector yields an expressed protein with the amino acid sequence shown in Table 1 (represented by SEQ ID NO:1). The coding region is preceded by an N-terminal extension represented by SEQ ID NO:3.
Whether protein production was done in BL21(DE3) or with the Tuner AroA knockout, the vector was electroporated into cells and transformants were selected for growth on LB agar containing 100 ug carbennicillin/ml. Cells were grown in Magic Medium, in which induction occurs when the medium becomes depleted of glucose. After 4 hours of growth at 37° C., cells were transferred to 30° C. and grown another 16 hrs. Pelleted cells were lysed with BPER (Pierce) protein extraction reagent containing 0.2 mg/ml lysozyme, 1 mM dithiothreitol, protease inhibitor cocktail (Sigma, bacterial cocktail) and endonuclease. Insoluble cellular debris was removed by centrifugation. EPSPS protein was purified from the soluble protein solution by affinity chromatography on the nickel form of nitrilotriacetic acid (Ni-NTA) resin (Qiagen). Protein concentration was measured by absorbance at 280 nm using an extinction coefficient of 0.676 OD/mg/ml, provided by Vector NTI.
Shikimate-3-phosphate (S3P) was prepared from cultures of Klebsiella pneumonia aroA-(ATCC 25597). Cells from a 500 ml culture grown in 2×YT were used to inoculate 6 L of minimal medium augmented with 55 uM tyrosine, 60 uM phenylalanine, 25 uM tryptophan, 0.1 uM 4-aminobenzoate and 0.1 uM 4-hydroxybenzoate (Weiss et al., 1953. J Amer Chem Soc 75:5572-5576). Accumulation of S3P was monitored by anion exchange HPLC. After about 4 days shaking at 37 C, the concentration reached ˜1 mM. S3P was purified from the culture supernatant by anion exchange chromatography in ammonium bicarbonate at pH 7.3, with gradient elution up to 0.7 M. S3P was cleanly separated from phosphate, which eluted earlier.
EPSPS activity was determined by quantifying the phosphate generated from the EPSPS reaction. Release of inorganic phosphate was coupled to reaction with 2-amino-6-mercapto-7-methylpurine ribonucleoside, catalyzed by purine-nucleoside phosphorylase (M R Webb, Proc. Natl. Acad. Sci. 89:4884-4887, 1992). The absorbance change that occurs was monitored at 360 nm, where the extinction is 11,200 M^−1 cm^−1, with a Spectramax plate reader (Molecular Devices). To determine kinetic parameters, the varied substrate was present at seven concentrations (the eighth being the blank, containing no substrate) ranging from 4 to 400 uM and the unvaried substrate present at saturation. […] Reactions were monitored with a Spectramax plate reader. […]

[2] = molecular target: T2, Zea mays EPSPS variant G102A (Zea mays, UniProt O24566, G101A); assay: EPSPS substrate saturation kinetics, G102A
T2 sequence (O24566 with tags, fused parts or gaps G101A): T1 sequence (O24566 with tags, fused parts or gaps) with G102A
Description: EPSPS activity was determined by quantifying the phosphate generated from the EPSPS reaction. Release of inorganic phosphate was coupled to reaction with 2-amino-6-mercapto-7-methylpurine ribonucleoside, catalyzed by purine-nucleoside phosphorylase (M R Webb, Proc. Natl. Acad. Sci. 89:4884-4887, 1992). The absorbance change that occurs was monitored at 360 nm, where the extinction is 11,200 M^−1 cm^−1, with a Spectramax plate reader (Molecular Devices). To determine kinetic parameters, the varied substrate was present at seven concentrations (the eighth being the blank, containing no substrate) ranging from 4 to 400 uM and the unvaried substrate present at saturation. Six microliters of 50-fold concentrated stock solutions of the varied substrate were placed in the wells of the 96-well assay plate and reactions were started with the addition of a mixture containing 25 mM Hepes, pH 7, 100 mM KCl, 0.3 mM 2-amino-6-mercapto-7-methylpurine ribonucleosde, 1 uM (1 unit/ml) purine-nucleoside phosphorylase (Sigma N8264) and 200 uM of the non-varied substrate. Reactions were monitored with a Spectramax plate reader. The Michaelis-Menten kinetics protocol of the Spectramax software was customized for the substrate concentrations used. The software returns values of KM and Vmax using the Lineweaver-Burke transformation of the Michaelis-Menten equation. To determine kcat, Vmax (uM/min) was divided by the enzyme concentration (uM). […] KI was then calculated from the following form of the Michaelis-Menten equation for competitive inhibition: KI=KM[I]/(KM app−KM) KM approximates the dissociation constant of the enzyme-substrate complex while kcat is the rate of conversion of substrate to product when the substrate concentration is saturating. kcat/KM is a widely accepted parameter for catalytic efficiency when substrate concentration is low (˜KM). […] The parameter kcat/KM×KI is used to quantify both catalytic efficiency and insensitivity and thus the overall fitness of the enzyme.

[3] = PEP as substrate, glyphosate as inhibitor

SMILES	kcat ([1]; PEP varied, S3P saturating, pH 7)	kcat ([1]; Table 3, unit not given)	Km ([1]; read-out: KM (PEP), Table 3, unit inferred)	kcat/KM ([2]; PEP)	kcat ([2]; PEP varied)	Ki [1]	(kcat/KM)*KI [1, 3]	Ki ([2]; KI (glyphosate), competitive with PEP)	Ki ([2]; Ki, substrate saturation, Zm-G102A)	(kcat/KM)*KI [2, 3]	(kcat/KM)*KI ([2]; substrate saturation, Zm-G102A)
C=C(OP(=O)(O)O)C(=O)O [PEP, phosphoenolpyruvate]	1464 min⁻¹	1464	15.7 µM	2.2 min^−1uM^−1	11.6 s⁻¹						
O=C(O)CNCP(=O)(O)O [glyphosate, N-phosphonomethylglycine]						0.00013 mM	11.8 and 12	2.29 mM	1.34 mM	5137	2820
